We go through six compounds from patent US20250302343A1, “AN ELECTRODE ARRAY FOR MEASURING THE PH OF ANIMAL TISSUES, A PROBE […] AN ARRAY, AND AN ASSEMBLY COMPRISING SAID PROBE” (QUANTUM I[…]. Z O.O., priority 2022, published 2025).

For this data set the following is noted: electrodes comprising the ionic liquid in the reference electrode membrane; ISO 10993-5:2009 (E) and ISO 10993-12:2021 (E). The procedure:
An evaluation of the acute cytotoxicity of the reference electrode components was performed.
Cytotoxicity-based biocompatibility tests were performed according to the procedures of ISO 10993-5:2009 (E) and ISO 10993-12:2021 (E) standards.

Entries after “also recorded” stand apart in the source; their conditions may differ.

On to “1-ethyl-3-methylimidazolium bis(trifluoromethyl sulfonyl)imide”, for which the acute cytotoxicity result is recorded as “no significant toxicity; also recorded: lowest cytotoxicity”.

With `CCCCn1cc[n+](C)c1.[Cl-]` [1-butyl-3-methylimidazolium chloride], the acute cytotoxicity result is “no significant toxicity”.

With choline acetate, the acute cytotoxicity entry was “no significant toxicity”.

In the case of choline phosphate, the acute cytotoxicity entry is reported as “no significant toxicity”.

Consider `CC(=O)[O-].CCCCn1cc[n+](C)c1` [1-butyl-3-methylimidazolium acetate], for which the acute cytotoxicity entry is “no significant toxicity”.

For the compound `CCCCn1cc[n+](C)c1.F[P-](F)(F)(F)(F)F` [1-butyl-3-methylimidazolium hexafluorophosphate], the acute cytotoxicity result is reported as “no significant toxicity”.
